Laboratory results from patent publication US20260224613A1, “Use Of Inorganic Nitrate For Preventing Restenosis And/Or Device Thrombosis” (Queen Mary University of London, priority 2023, published 2026).

Key:
[1] = test system: Human Coronary Arterial Smooth Muscle Cells (HCSMC); details: NaNO2 3 μM; hypoxia 0.1% O2 24 h, re-oxygenation 8, 24 and 48 h; FIG. 2
Experimental: (§1) FIG. 2—Effects of NaNO2 on cell proliferation of Human Coronary Arterial Endothelial Cells (HCAEC) and Human Coronary Arterial Smooth Muscle Cells (HCSMC) exposed to Ischaemia/Reperfusion injury. Cell Count of HCAEC and HCASMC respectively under hypoxia (0.1% O2, 24 h) and re-oxygenation (normoxia, 8, 24 and 48 h post ischaemia)) in the absence and presence of NaNO2 3 μM. n=7/group for HCAEC and n=5/group for HCASMC. Results are expressed as % changes of the respective matched normoxia controls. Data represent mean±SEM of the number of independent experiments performed as indicated above. Statistical significance determined using two-way ANOVA followed by post-test comparing response at each timepoint between treatments determined using Sidak's multiple comparison test.

[2] = test system: Human Coronary Arterial Endothelial Cells (HCAEC); details: NaNO2 3 μM; hypoxia 0.1% O2 24 h, re-oxygenation 8, 24 and 48 h; FIG. 2
Experimental: as §1

O=N[O-].[Na+] [nitrite, NaNO2]
growth of vascular smooth muscle cells following an ischaemia-reperfusion insult [1]: suppressing
endothelial cell growth following an ischaemia-reperfusion insult [2]: improves
